Measurements published in patent US20230084978A1, “OPTIMIZATION OF PEPTIDE-MELANIN BINDING” (ASSITANCE PUBLIQUE - HÔPITAUX DE PARIS, priority 2020, published 2023).

How the values were obtained:
C57BL/6 mice = experiment: CTL response (IFNg-SFCs of re-stimulated splenocytes) after subcutaneous immunization; format: in vivo; conditions: antigen added just after polymerization (Mel+peptide) + CpG-28, subcutaneous, 10 μg/mouse, day 8
Experimental: FIG. 1: CTL response after subcutaneous immunizations in 5-weeks old, C57BL/6, mice. Peptides (10 μg/mouse) were mixed with L-Dopa (weight ratio peptide/L-Dopa=1/4 and 1/6 for gp100 and EphA2 respectively) and incubated under the above described conditions (see table 1). Phosphorothioate oligonucleotide CpG-28 (5′-[…], SEQ ID NO: 21), were added to vaccine formulations (10 μg/mouse) just before the immunizations. Mice were then immunized sub-cutaneously with gp100-Mel+CpG (“gp100-Mel”), or with previously synthesized melanin mixed with gp100 and CpG (“Mel+gp100”); EphA2-Mel+CpG (“EphA2-Mel”), melanin+EphA2+CpG (“Mel+EphA2”). Mice were sacrificed on day 8 and the CTL response was performed as described in Carpentier; 2017. Briefly, splenocytes were re-stimulated in vitro with the corresponding MHC class 1-epitope (non-conjugated to melanin) and the numbers of IFNg-SFCs (Spot forming cells) were measured and expressed as Mean+/−S.E.M. (n=8 mice/group with pooled data from 2 different experiments of 4 mice each. Student-T test: gp100-Mel vs Mel+gp100: p<0.001; EphA2-Mel vs Mel+EphA2: p<0.001)
FIG. 2: CTL response after subcutaneous immunizations in C57BL/6 mice. […]

[1] = Binding of peptides to synthetic melanin (Tricine-SDS-PAGE analysis); conditions: for Percentage of peptide binding to melanin, Mel + peptide: L-Dopa polymerized 2 h at pH 8.5 and 60° C. before the peptide was added; for binding of the peptides to melanin (in words), SDS-page analysis: antigen added just after L-Dopa is polymerized in melanin; for Percentage of peptide binding to melanin, Peptide-Mel: peptide mixed with L-Dopa (1/4 gp100, 1/6 EphA2), then 2 hours at pH 8.5 and 60° C.
From the text: The binding of the peptide to the melanin can be verified by Tricine-SDS-PAGE analysis as described in Carpentier; 2017 (op. cit.). Briefly, samples (peptide-Mel or peptide alone) are loaded on acrylamide gels. Following electrophoresis, the gels are stained with Coomassie Brilliant Blue R-250, allowing the quantification of the free peptide in the gel. The binding of peptides to melanin can be expressed as the ratio: [amount of unbound peptide in samples Peptide-Mel/amount of peptides in control samples containing peptides alone.
Peptides were mixed with L-Dopa (weight ratio peptide/L-Dopa=1/4 and 1/6 for gp100 and EphA2, respectively) then incubated for 2 hours at pH 8.5 and 60° C. under agitation to ensure oxygenation of the solution to generate nanoparticles of melanin-bound peptides (Peptide-Mel). Alternatively, L-Dopa alone (0.8 mg/ml) was polymerized into melanin for 2 h at pH 8.5 and 60° C. under agitation, before the peptides (weight ratio peptide/L-Dopa=1/4 and 1/6 for gp100 and EphA2, respectively) were added to the solution (Mel+peptide). Tricine-SDS-PAGE analysis was performed as described in Carpentier; 2017 (op. cit.). Briefly, samples (peptide-Mel or peptide alone) were loaded on acrylamide gels. Following electrophoresis, the gels were stained with Coomassie Brilliant Blue R-250 and imaged with the ChemiDoc XRS+ system (Bio-Rad Laboratory), allowing the quantification of the free peptide in the gel. The binding of peptides to melanin was expressed as the ratio: [amount of unbound peptide in samples Peptide-Mel/amount of peptides in control samples containing peptides alone]
First column (Peptide-Mel): L-Dopa (0.8 mg/ml) was mixed with peptides (weight ratio peptide/L-Dopa=1/4) then incubated for 2 hours at pH 8.5 and 60° C. to generate nanoparticles of melanin-bound peptides. Alternatively (second column; Mel+peptide), L-Dopa alone (0.8 mg/ml) was first polymerized into melanin for 2 h at pH 8.5 and 60° C. under vigorous agitation, before the peptides (weight ratio peptide/L-Dopa=1/4) were added to the solution and incubated for 2 hours at room temperature. In both cases, the percentage of peptides that bound to melanin was then quantified with SPS-page analysis, as described in table 1. (ND=not done)
(§1) L-Dopa (0.8 mg/ml) underwent an oxidative polymerization at pH 8.5 in aerobic conditions for 2 hours at 60° C. The reaction mixture was then filtered on a 10 kDa filter, and the retentate containing the synthetic melanin was resuspended at pH 7.5 in phosphate buffer. Peptides were then added (at the weight ratio peptide/L-Dopa=1/4) and the mixture was incubated for various periods of time and or pH. The percentage of peptides that bound to melanin was then quantified with SPS-page analysis, as described in table 1. (ND=not done).
as §1, with “8.5 and 60° C.” for “8.5 in aerobic conditions”, “2 hours.” for “2 hours at 60° C.”, “of time. Binding” for “of time and or pH. The percentage”, “of the” for “of”, “peptides” for “peptides that bound to melanin”, “(ND=not done)” for “(ND=not done).”

Row | Percentage of peptide binding to melanin, Mel + peptide [1] | binding of the peptides to melanin (in words), SDS-page analysis [1] | Percentage of peptide binding to melanin, Peptide-Mel [1] | Binding of peptides on synthetic melanin, Mel + peptide 10 minutes ([1]; filtered preformed melanin at pH 7.5, peptide/L-Dopa 1/4, 10 minutes) | Binding of peptides on synthetic melanin, Mel + peptide 2 hours ([1]; filtered preformed melanin at pH 7.5, peptide/L-Dopa 1/4, 2 hours) | Binding of peptides on synthetic melanin, Mel + peptide 18 hours ([1]; filtered preformed melanin at pH 7.5, peptide/L-Dopa 1/4, 18 hours) | Sequence | ability of the vaccine formulation to trigger a CTL (CD8) response (C57BL/6 mice)
1 | 9 +/− 6% | minimal binding | 93 +/− 12% |  |  |  | FSHHNIIRL (EphA2 peptide) [SEQ ID NO: 2, reference compound] | lost
2 | 23 +/− 8% | minimal binding | 100 +/− 0% | 6% | 22% | 89% | KVPRNQDWL (gp100 peptide) [SEQ ID NO: 1, reference compound] | lost
